Measured values reported in US8835124B2, “Method for treating cancer with agents that bind phosphorylated CDC27” (The Nemours Foundation, priority 2011, dated 2014).

Test system: DAOY cells
Assay: LDH release cytotoxicity assay
Type: cell-based, human
Conditions: DAOY cells treated for 16 hours
Protocol: Lactate dehydrogenase (LDH) levels as a measure of cell death were determined using the Non-radioactive Cytotoxicity kit (Promega, Madison, Wis.) according to manufacturer's instructions. […] Cell debris was removed by centrifugation. Viable cell LDH was collected from cells lysed by freezing for 15 minutes at −70° C. followed by thawing at 37° C. The medium was collected and cleared from cell debris by centrifugation. The relative release of LDH was determined as the ratio of released LDH versus total LDH from viable cells.
Data represent mean±SEM of three independent experiments.

COc1cc(C=CC(C)=O)ccc1O [half-curcumin, 4-(4-hydroxy-3-methoxyphenyl)-3-buten-2-one]
cell death (LDH release): failed to induce cell death
